Reference: article PMC4104029, “Mechanism of Action of Compound-13: An α1-Selective Small Molecule Activator of AMPK” (Chemistry & Biology, 2014)

Tested on: AMPK signaling in mouse primary hepatocytes
Assay: AMPK signaling in primary hepatocytes, western blotting
Type: cell-based
Method: Figure 4 The C2 Prodrug, C13, Potently Activates AMPK in Mouse Primary Hepatocytes (A) Isolated mouse hepatocytes were incubated with vehicle or the indicated concentrations of C13 for 1 hr. AICAR (0.5 mM) was included as a positive control. Cell lysates were analyzed using western blotting with the indicated antibodies. (B) AMPKα1 or AMPKα2 complexes were immunoprecipitated from hepatocyte extracts prepared as described in (A) and assayed for kinase activity using 0.2 mM AMARA and 0.1 mM ATP. Results are expressed as the mean Pi incorporated in picomoles per minute-milligram ± SD. (C) Hepatocytes were stimulated with 30 μM C13 for the indicated times prior to harvesting, with AICAR (0.5 mM, 1 hr) as positive control. Lysates were analyzed using western blotting with the indicated antibodies. (D) Mouse hepatocytes were treated with the indicated compounds for 1 hr, and adenine nucleotide ratios were determined using capillary electrophoresis of perchloric acid extracts. (E) Mouse hepatocytes were preincubated with 30 μM STO-609 for 30 min prior to stimulation with 30 μM C13 for 1 hr or with 1 μM ionomycin for 30 min. Lysates were analyzed using western blotting with the indicated antibodies. (F) Wild-type (LKB1^+/+) or LKB1-null (LKB1^−/−) mouse embryonic fibroblasts were incubated with the indicated concentrations of C13 for 1 hr. AICAR (2 mM) was included as a positive control. Lysates were analyzed using western blotting with the indicated antibodies. Results are representative of three independent experiments. […]
Isolation of primary hepatocytes. Hepatocytes were isolated from fasted mice by collagenase digestion (Berry and Friend, 1969). Cells were seeded in M199 containing 100 U/ml penicillin G, 100 µg/ml streptomycin, 0.1 % (w/v) BSA, 10 % (v/v) FBS, 10 nM insulin, 200 nM triiodothyronine and 100 nM dexamethasone. Post attachment (3-4 h), cells were cultured overnight in M199 supplemented with antibiotics and 100 nM dexamethasone and used for experiments the following morning.
Western blotting. Cells were stimulated as indicated, rinsed with ice-cold PBS and lysed with 50 mM tris pH 7.5, 1 mM EDTA, 1 mM EGTA, 0.27 M sucrose, 1 % (w/v) Triton X-100, 20 mM glycerol-2-phosphate, 50 mM NaF, 5 mM Na4P2O7, 1 mM Na3VO4, 1 mM DTT, 0.5 mM PMSF, 1 mM benzamidine and 1 µM microcystin-LR. Lysates were clarified at 3000 g for 5 min at 4 °C and normalised using Bradford reagent and BSA as standard. Lysates (20 µg) were denatured in Laemlli buffer, separated on 7.5 % tris-glycine gels and transferred to PVDF in Towbin buffer. Membranes were blocked in 5 % (w/v) milk for 1 h at RT and incubated overnight in the indicated primary antibodies at 4 °C. Membranes were developed using HRP-conjugated antibodies and ECL reagent.
Nucleotide measurements. Cultured hepatocytes were incubated with the indicated compounds and washed with ice-cold 0.9 % (w/v) saline before extraction in 5 % perchloric acid. Precipitated material was removed by centrifugation (13,000 RPM, 3 min) and supernatant neutralised with 1:1 trioctylamine:Freon-113 (Khym, 1975). Nucleotides were separated and quantified by capillary electrophoresis using a Beckman P/ACE instrument as previously described (Hawley, et al., 2010).

CC(C)C(=O)OCOP(=O)(OCOC(=O)C(C)C)c1ccc(C2=NOC(=O)C2)o1 [Compound C13]
time course of Thr172 phosphorylation (30 μM): continually increased up to 2 hr | time to maximal phosphorylation of downstream targets (ACC, Raptor, and ULK1) (30 μM): 45 to 60 min | insulin-stimulated mTORC1 activation (phosphorylation of p70S6K and 4EBP1) (30 µM, 10 mU/ml insulin, 60 min): suppressed | concentration above which Raptor and ULK1 were significantly phosphorylated (1 hr): 1 to 3 µM | concentration above which phosphorylation of ACC was evident (1 hr): 0.03 to 0.1 µM | concentration at which ACC phosphorylation appeared saturated (1 hr): 1 to 3 µM | concentration at which Thr389 p70S6K1 phosphorylation was suppressed (1 hr): above 1 μM | lowest concentration with elevation of Thr172 phosphorylation (1 hr): 10 µM
